Laboratory results: the supplement of paper PMC12819154, “High-throughput peptide-centric local stability assay extends protein–ligand identification to membrane proteins, tissues and bacteria” (Nature Structural & Molecular Biology, 2025)

Assays:
Test in all cases: pEC50 of peptide local stability change
[1] = target: UniProt P64610; conditions: peptide sequence: YYAHLGR; direction: stabilized; replicate design: treated separately
Outline: (§1)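 Reported values are mean pEC50 estimates. They come from four-parameter log-logistic fits of treated/control peptide ratios, measured by DIA LC–MS/MS in four replicates of E. coli K-12 BW25113 lysate (1.2 mg ml^−1, desalted, MgCl2-supplemented) given ATP at seven doses (10 µM–10 mM) or water for 30 min at 25 °C and trypsin-digested for 4 min at 22 °C. A value was kept only when R^2 exceeded 0.9 in at least three replicates and the coefficient of variation was no more than 0.25.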

[2] = target: UniProt P37744; conditions: peptide sequence: LSVAMMGR; direction: stabilized; replicate design: treated separately
Outline: as §1

[3] = target: UniProt P77499; conditions: peptide sequence: GKDLLALSPEDR; direction: stabilized; replicate design: treated separately
Outline: as §1

[4] = target: UniProt P75957; conditions: peptide sequence: KKPAEINSR; direction: stabilized; replicate design: treated separately
Outline: as §1

[5] = target: UniProt P22106; conditions: peptide sequence: QALEDSVK; direction: stabilized; replicate design: treated separately
Outline: as §1

[6] = target: UniProt P11454; conditions: peptide sequence: ALPLPELK; direction: stabilized; replicate design: treated separately
Outline: as §1

[7] = target: UniProt P0AEC3; conditions: peptide sequence: DSHGGKPATGTGIGLAVSR; direction: stabilized; replicate design: treated separately
Outline: as §1

[8] = target: UniProt P18392; conditions: peptide sequence: EHIFEPFVR; direction: stabilized; replicate design: treated separately
Outline: as §1

[9] = target: UniProt P33919; conditions: peptide sequence: VLVLAHVK; direction: stabilized; replicate design: treated separately
Outline: as §1

[10] = target: UniProt P77485; conditions: peptide sequence: GTVAVTSDAR; direction: stabilized; replicate design: treated separately
Outline: as §1

[11] = target: UniProt P00959; conditions: peptide sequence: LKENGFIK; direction: stabilized; replicate design: treated separately
Outline: as §1

Chain of UniProt P37744 (P37744 whole entry): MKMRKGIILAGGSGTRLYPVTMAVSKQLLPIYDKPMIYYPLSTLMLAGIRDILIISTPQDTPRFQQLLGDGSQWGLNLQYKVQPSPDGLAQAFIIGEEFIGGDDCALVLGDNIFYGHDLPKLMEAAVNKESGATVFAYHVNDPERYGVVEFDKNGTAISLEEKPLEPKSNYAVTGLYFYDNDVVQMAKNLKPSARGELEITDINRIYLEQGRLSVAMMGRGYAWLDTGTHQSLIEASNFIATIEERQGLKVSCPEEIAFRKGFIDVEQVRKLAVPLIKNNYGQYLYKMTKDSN
Chain of UniProt P11454 (P11454 whole entry): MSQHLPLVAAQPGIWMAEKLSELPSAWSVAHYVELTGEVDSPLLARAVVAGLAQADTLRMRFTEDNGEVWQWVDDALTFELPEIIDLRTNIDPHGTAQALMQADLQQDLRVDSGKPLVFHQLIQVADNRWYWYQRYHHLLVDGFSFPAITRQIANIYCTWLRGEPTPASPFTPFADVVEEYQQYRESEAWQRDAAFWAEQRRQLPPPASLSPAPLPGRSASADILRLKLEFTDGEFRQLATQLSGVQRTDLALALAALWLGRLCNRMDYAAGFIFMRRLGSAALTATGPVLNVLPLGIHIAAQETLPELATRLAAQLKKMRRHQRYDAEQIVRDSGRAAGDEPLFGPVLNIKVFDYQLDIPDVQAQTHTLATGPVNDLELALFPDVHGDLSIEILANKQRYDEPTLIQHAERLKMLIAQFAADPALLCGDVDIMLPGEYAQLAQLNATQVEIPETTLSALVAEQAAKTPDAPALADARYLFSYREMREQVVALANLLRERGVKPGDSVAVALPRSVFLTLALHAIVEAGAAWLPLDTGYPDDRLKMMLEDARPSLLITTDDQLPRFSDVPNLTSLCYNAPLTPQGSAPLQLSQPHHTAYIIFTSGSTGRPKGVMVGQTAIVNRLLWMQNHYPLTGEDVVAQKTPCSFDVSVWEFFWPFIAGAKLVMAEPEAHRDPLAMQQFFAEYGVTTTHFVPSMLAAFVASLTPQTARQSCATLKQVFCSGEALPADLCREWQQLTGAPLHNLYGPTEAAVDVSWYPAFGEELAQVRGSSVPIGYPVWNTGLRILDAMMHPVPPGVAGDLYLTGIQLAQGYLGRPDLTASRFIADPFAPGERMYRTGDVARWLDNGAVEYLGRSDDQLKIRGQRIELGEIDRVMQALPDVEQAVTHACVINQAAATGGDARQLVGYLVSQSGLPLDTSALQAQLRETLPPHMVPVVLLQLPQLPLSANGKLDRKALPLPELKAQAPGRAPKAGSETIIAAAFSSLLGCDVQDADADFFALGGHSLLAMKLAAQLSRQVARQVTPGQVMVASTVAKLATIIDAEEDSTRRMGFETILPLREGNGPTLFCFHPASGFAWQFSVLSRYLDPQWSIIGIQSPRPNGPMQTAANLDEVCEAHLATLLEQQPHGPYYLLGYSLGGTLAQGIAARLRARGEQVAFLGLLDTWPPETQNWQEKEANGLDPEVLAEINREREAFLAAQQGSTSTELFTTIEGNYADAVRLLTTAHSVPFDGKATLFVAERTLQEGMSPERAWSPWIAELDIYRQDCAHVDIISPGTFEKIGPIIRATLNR
Chain of UniProt P18392 (P18392 whole entry): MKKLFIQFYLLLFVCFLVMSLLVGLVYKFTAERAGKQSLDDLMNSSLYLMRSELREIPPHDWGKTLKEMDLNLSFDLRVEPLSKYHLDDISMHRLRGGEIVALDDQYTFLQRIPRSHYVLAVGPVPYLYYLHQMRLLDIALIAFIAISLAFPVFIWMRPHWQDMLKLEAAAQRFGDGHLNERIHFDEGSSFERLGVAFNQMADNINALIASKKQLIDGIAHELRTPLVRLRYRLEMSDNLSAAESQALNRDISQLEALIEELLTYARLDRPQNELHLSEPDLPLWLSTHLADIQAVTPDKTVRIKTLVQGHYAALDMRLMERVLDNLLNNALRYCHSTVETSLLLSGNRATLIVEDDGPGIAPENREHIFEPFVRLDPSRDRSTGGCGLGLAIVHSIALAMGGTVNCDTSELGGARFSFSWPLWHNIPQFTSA
Chain of UniProt P77485 (P77485 whole entry): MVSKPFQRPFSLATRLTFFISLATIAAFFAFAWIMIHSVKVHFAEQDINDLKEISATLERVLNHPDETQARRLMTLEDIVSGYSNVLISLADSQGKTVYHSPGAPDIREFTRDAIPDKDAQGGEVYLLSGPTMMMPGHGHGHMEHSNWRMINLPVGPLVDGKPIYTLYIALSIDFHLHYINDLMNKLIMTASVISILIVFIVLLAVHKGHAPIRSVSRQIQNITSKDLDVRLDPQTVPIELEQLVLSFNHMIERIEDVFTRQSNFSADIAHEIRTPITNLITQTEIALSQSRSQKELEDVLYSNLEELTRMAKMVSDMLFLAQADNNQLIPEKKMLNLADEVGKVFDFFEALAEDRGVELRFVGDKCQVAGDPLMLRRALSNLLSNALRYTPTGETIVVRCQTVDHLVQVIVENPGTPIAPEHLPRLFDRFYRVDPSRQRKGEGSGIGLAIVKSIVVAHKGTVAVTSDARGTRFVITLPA
Chain of UniProt P75957 (P75957 whole entry): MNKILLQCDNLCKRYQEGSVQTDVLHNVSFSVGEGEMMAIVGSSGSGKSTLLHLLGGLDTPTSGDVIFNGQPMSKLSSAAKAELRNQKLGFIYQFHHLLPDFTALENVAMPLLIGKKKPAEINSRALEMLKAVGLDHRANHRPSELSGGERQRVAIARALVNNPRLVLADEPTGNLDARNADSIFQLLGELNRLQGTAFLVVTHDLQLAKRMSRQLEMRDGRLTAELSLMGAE
Chain of UniProt P0AEC3 (P0AEC3 whole entry): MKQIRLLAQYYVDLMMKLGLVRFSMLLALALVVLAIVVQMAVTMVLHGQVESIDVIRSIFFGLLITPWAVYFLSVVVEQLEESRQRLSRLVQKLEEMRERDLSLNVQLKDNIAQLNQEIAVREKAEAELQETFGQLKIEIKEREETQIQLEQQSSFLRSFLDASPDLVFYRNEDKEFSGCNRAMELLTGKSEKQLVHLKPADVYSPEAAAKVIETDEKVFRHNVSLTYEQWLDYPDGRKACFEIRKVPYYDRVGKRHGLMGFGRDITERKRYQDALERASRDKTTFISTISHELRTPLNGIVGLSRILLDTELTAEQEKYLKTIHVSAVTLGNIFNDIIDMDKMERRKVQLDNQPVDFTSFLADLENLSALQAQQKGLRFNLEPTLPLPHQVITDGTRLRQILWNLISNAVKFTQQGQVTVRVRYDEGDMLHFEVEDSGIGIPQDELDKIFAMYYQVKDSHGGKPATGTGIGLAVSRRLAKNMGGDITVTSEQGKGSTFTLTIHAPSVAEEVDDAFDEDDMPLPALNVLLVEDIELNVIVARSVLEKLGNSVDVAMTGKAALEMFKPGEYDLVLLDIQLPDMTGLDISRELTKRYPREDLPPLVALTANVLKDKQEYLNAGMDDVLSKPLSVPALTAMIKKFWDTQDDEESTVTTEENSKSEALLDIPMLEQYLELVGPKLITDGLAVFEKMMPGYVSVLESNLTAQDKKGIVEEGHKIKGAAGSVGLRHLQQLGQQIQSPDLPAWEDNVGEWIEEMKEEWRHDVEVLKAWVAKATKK
Chain of UniProt P64610 (P64610 whole entry): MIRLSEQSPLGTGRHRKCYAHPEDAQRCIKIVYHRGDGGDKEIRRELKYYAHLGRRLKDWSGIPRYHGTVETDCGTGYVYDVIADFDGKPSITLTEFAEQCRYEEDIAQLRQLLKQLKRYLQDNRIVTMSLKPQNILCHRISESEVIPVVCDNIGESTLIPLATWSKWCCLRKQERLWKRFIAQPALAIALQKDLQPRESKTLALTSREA
Chain of UniProt P00959 (P00959 whole entry, looked up): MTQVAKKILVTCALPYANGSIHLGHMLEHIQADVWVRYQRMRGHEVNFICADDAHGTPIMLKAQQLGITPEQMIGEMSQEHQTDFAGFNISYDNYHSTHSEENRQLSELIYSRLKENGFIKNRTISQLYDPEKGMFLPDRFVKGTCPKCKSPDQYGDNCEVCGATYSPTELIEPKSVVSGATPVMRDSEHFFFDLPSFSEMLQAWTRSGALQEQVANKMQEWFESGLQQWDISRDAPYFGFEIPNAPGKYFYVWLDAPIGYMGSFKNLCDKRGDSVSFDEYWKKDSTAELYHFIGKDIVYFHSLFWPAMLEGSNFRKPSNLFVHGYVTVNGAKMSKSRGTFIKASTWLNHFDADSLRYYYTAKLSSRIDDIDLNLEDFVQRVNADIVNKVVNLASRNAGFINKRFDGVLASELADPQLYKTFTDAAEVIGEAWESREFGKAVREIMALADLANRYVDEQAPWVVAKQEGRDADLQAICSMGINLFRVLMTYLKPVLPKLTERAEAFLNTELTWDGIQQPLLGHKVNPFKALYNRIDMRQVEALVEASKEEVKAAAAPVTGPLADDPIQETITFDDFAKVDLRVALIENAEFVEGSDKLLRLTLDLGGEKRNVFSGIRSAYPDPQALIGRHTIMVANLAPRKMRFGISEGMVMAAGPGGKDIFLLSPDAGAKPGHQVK
Chain of UniProt P33919 (P33919 whole entry): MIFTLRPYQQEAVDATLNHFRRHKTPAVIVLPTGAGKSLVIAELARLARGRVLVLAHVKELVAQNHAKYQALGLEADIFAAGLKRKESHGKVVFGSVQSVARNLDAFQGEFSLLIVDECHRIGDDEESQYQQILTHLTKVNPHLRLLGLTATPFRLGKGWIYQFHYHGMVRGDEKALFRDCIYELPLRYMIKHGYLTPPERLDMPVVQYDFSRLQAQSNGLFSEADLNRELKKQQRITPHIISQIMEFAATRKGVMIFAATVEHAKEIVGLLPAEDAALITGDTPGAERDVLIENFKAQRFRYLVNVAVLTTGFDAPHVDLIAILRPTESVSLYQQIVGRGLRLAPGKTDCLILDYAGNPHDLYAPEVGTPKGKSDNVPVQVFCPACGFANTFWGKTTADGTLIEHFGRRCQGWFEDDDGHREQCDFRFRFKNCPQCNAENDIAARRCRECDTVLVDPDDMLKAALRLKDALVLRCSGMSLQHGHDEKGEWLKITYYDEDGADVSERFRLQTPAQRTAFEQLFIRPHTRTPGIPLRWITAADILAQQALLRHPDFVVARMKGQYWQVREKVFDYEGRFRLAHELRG

Nc1ncnc2c1ncn2[C@@H]1O[C@H](COP(=O)(O)OP(=O)(O)OP(=O)(O)O)[C@@H](O)[C@H]1O [adenosine 5'-triphosphate]
Conditions | pEC50 of peptide local stability change
[1] | 4.1
[2] | 3.22
[3] | 3.9
[4] | 3.56
[5] | 2.42
[6] | 3.15
[7] | 2.99
[8] | 2.88
[9] | 4.16
[10] | 2.24
[11] | 2.99
